Assays:
[1] = 298.15 K; 101.33 kPa; Liquid
[2] = excess molar enthalpy (molar enthalpy of mixing); xn = mol fraction of the nth substance listed; details: 298.15 K, 101.33 kPa, Liquid, Flow calorimetry

CCCCCCCCCC [decane]
Details | mass density [kg/m3]
[1] | 726.3

CCCCCCCCCCCC [dodecane]
Details | mass density [kg/m3]
[1] | 745.32

CCCCCCC [heptane]
Details | mass density [kg/m3]
[1] | 680.17

C=CCCCC [hex-1-ene]
Details | mass density [kg/m3]
[1] | 668.73

C=CCCCC [hex-1-ene] + CCCCCCC
[2]
Details | excess molar enthalpy [kcal/mol]
x1 = 0.05 | 0.00266
x1 = 0.1 | 0.00507
x1 = 0.1499 | 0.00724
x1 = 0.1998 | 0.00898
x1 = 0.2496 | 0.0107
x1 = 0.2998 | 0.0121
x1 = 0.35 | 0.0131
x1 = 0.3984 | 0.0141
x1 = 0.4492 | 0.0146
x1 = 0.5005 | 0.0147
x1 = 0.5498 | 0.0147
x1 = 0.6 | 0.0143
x1 = 0.6496 | 0.0135
x1 = 0.6992 | 0.0126
x1 = 0.7497 | 0.0113
x1 = 0.8 | 0.00988
x1 = 0.8499 | 0.0079
x1 = 0.9 | 0.00559
x1 = 0.95 | 0.0028

C=CCCCC [hex-1-ene] + CCCCCCCC
[2]
Details | excess molar enthalpy [kcal/mol]
x1 = 0.05 | 0.00272
x1 = 0.1 | 0.00532
x1 = 0.15 | 0.0078
x1 = 0.2036 | 0.00995
x1 = 0.2496 | 0.0115
x1 = 0.3 | 0.0131
x1 = 0.3497 | 0.0143
x1 = 0.3998 | 0.0153
x1 = 0.45 | 0.0158
x1 = 0.5 | 0.0162
x1 = 0.5499 | 0.0161
x1 = 0.5994 | 0.0157
x1 = 0.65 | 0.015
x1 = 0.6998 | 0.014
x1 = 0.7501 | 0.0126
x1 = 0.8002 | 0.0108
x1 = 0.8499 | 0.00882
x1 = 0.9 | 0.00628
x1 = 0.95 | 0.00332

C=CCCCC [hex-1-ene] + CCCCCCCCCC
[2]
Details | excess molar enthalpy [kcal/mol]
x1 = 0.05 | 0.00385
x1 = 0.1 | 0.00726
x1 = 0.1503 | 0.0103
x1 = 0.2001 | 0.0129
x1 = 0.2482 | 0.0154
x1 = 0.2997 | 0.0174
x1 = 0.3504 | 0.019
x1 = 0.3999 | 0.0204
x1 = 0.4508 | 0.0211
x1 = 0.4994 | 0.0217
x1 = 0.5501 | 0.0217
x1 = 0.5996 | 0.0213
x1 = 0.6496 | 0.0204
x1 = 0.7004 | 0.019
x1 = 0.7495 | 0.0172
x1 = 0.7998 | 0.0149
x1 = 0.8501 | 0.0122
x1 = 0.9 | 0.00862
x1 = 0.95 | 0.00457

C=CCCCC [hex-1-ene] + CCCCCCCCCCCC
[2]
Details | excess molar enthalpy [kcal/mol]
x1 = 0.0501 | 0.00512
x1 = 0.0999 | 0.00975
x1 = 0.15 | 0.0136
x1 = 0.1999 | 0.0174
x1 = 0.2521 | 0.0208
x1 = 0.2994 | 0.0235
x1 = 0.3494 | 0.0259
x1 = 0.4001 | 0.0277
x1 = 0.4503 | 0.0287
x1 = 0.5001 | 0.0293
x1 = 0.5505 | 0.0294
x1 = 0.5998 | 0.029
x1 = 0.6501 | 0.0278
x1 = 0.6999 | 0.026
x1 = 0.7499 | 0.0234
x1 = 0.8001 | 0.02
x1 = 0.8503 | 0.0162
x1 = 0.8999 | 0.0117
x1 = 0.95 | 0.00626

CCCCCCCC [octane]
Details | mass density [kg/m3]
[1] | 698.72

CCCCCCCCCCCCCC [tetradecane]
Details | mass density [kg/m3]
[1] | 759.36

CCCCCCCCCCCCCC [tetradecane] + C=CCCCC
[2]
Details | excess molar enthalpy [kcal/mol]
x2 = 0.05 | 0.00618
x2 = 0.1001 | 0.0124
x2 = 0.1501 | 0.0179
x2 = 0.2003 | 0.0228
x2 = 0.2499 | 0.0271
x2 = 0.297 | 0.0305
x2 = 0.3497 | 0.0339
x2 = 0.4002 | 0.0363
x2 = 0.4498 | 0.0376
x2 = 0.5 | 0.0386
x2 = 0.5497 | 0.0387
x2 = 0.5998 | 0.038
x2 = 0.6495 | 0.0364
x2 = 0.6996 | 0.0339
x2 = 0.7502 | 0.0306
x2 = 0.7996 | 0.0264
x2 = 0.8498 | 0.0211
x2 = 0.8999 | 0.015
x2 = 0.95 | 0.00747
